Source: the supplement of paper PMC10307832

How the values were obtained:
Assay in all cases: relative viability (nuclei count vs DMSO), 5 days (fraction); higher = more cells survive
NCI-H1623 = system: NCI-H1623
How it was run: (§1)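 Cells from lung cancer lines were seeded into 1536-well plates and, one day later, dosed by pin tool. Treatments were either a single drug or a fixed dose of an anchor drug with five library-drug doses (not always all listed) in √10 steps. After 5 days, nuclei were stained in a one-step fixation (final 0.05% Triton X-100, 1% formaldehyde, 1 ug/ml Hoechst) and counted on 4× images, and relative viability is the treated-to-vehicle nuclei ratio, as the median of duplicate plates.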

HCC-366 = system: HCC-366
How it was run: as §1

A549 = system: A549
How it was run: as §1

NCI-H1437 = system: NCI-H1437
How it was run: as §1

LOU-NH91 = system: LOU-NH91
How it was run: as §1

NCI-H3122 = system: NCI-H3122
How it was run: as §1

HCC-44 = system: HCC-44
How it was run: as §1

NCI-H2085 = system: NCI-H2085
How it was run: as §1

Structure (SMILES)	relative viability (NCI-H1623; first compound 0.08 µM)	relative viability (NCI-H1623; first compound 0.253 µM)	relative viability (NCI-H1623; first compound 0.8 µM)	relative viability (NCI-H1623; first compound 2.53 µM)	relative viability (NCI-H1623; first compound 8 µM)	relative viability (HCC-366; first compound 0.08 µM)	relative viability (HCC-366; first compound 0.253 µM)	relative viability (HCC-366; first compound 0.8 µM)	relative viability (HCC-366; first compound 2.53 µM)	relative viability (HCC-366; first compound 8 µM)	relative viability (A549; first compound 0.08 µM)	relative viability (A549; first compound 0.253 µM)	relative viability (A549; first compound 0.8 µM)	relative viability (A549; first compound 2.53 µM)	relative viability (A549; first compound 8 µM)	relative viability (NCI-H1437; first compound 0.08 µM)	relative viability (NCI-H1437; first compound 0.253 µM)	relative viability (NCI-H1437; first compound 0.8 µM)	relative viability (NCI-H1437; first compound 2.53 µM)	relative viability (NCI-H1437; first compound 8 µM)	relative viability (LOU-NH91; first compound 0.08 µM)	relative viability (LOU-NH91; first compound 0.253 µM)	relative viability (LOU-NH91; first compound 0.8 µM)	relative viability (LOU-NH91; first compound 2.53 µM)	relative viability (LOU-NH91; first compound 8 µM)	relative viability (NCI-H3122; first compound 0.08 µM)	relative viability (NCI-H3122; first compound 0.253 µM)	relative viability (NCI-H3122; first compound 0.8 µM)	relative viability (NCI-H3122; first compound 2.53 µM)	relative viability (NCI-H3122; first compound 8 µM)	relative viability (HCC-44; first compound 0.08 µM)	relative viability (HCC-44; first compound 0.253 µM)	relative viability (HCC-44; first compound 0.8 µM)	relative viability (HCC-44; first compound 2.53 µM)	relative viability (HCC-44; first compound 8 µM)	relative viability (NCI-H2085; first compound 0.08 µM)	relative viability (NCI-H2085; first compound 0.253 µM)	relative viability (NCI-H2085; first compound 0.8 µM)	relative viability (NCI-H2085; first compound 2.53 µM)	relative viability (NCI-H2085; first compound 8 µM)
O=c1cc(-c2cccc3c2Sc2ccccc2S3)oc(N2CCOCC2)c1 + N=C(N)NC(=N)NCCc1ccccc1 [Phenformin] (partner 250 µM)	0.603	0.68	0.593	0.535	0.576	0.588	0.727	0.71	0.549	0.632	0.202	0.097	0.315	0.129	0.28	0.271	0.683	0.238	0.277	0.343	0.611	0.675	0.658	0.6	0.741	0.38	0.418	0.376	0.36	0.398	0.173	0.172	0.144	0.182	0.217	0.654	0.702	0.739	0.678	0.576
COc1nc(C)cnc1NS(=O)(=O)c1cccnc1-c1ccc(-c2nnco2)cc1 [Zibotentan] + CCNC(=O)c1noc(-c2cc(C(C)C)c(O)cc2O)c1-c1ccc(CN2CCOCC2)cc1 [Luminespib] (partner 0.01 µM)	0.427		0.445	0.486												1.15	0.967	1.12	1.15		0.33	0.315	0.382	0.364		0.0904	0.112	0.0537	0.104		1.63		1.07	1.08		0.386	0.423	0.42	0.463	
COc1nc(C)cnc1NS(=O)(=O)c1cccnc1-c1ccc(-c2nnco2)cc1 [Zibotentan] + Cc1nc(Nc2ncc(C(=O)Nc3c(C)cccc3Cl)s2)cc(N2CCN(CCO)CC2)n1 [Dasatinib] (partner 0.075 µM)	0.533		0.567	0.507		0.73	0.584	0.359	0.652							0.408	0.292	0.283	0.428		0.577	0.485	0.539	0.577		0.807	0.817	0.701	0.751							0.24	0.227	0.211	0.213	
COc1nc(C)cnc1NS(=O)(=O)c1cccnc1-c1ccc(-c2nnco2)cc1 [Zibotentan] + N=C(N)NC(=N)NCCc1ccccc1 [Phenformin] (partner 250 µM)	0.592		0.626	0.564		0.692	0.62	0.577	0.603		0.184	0.136	0.183	0.135		0.308	0.297	0.297	0.347		0.712	0.683	0.798	0.819		0.378		0.408	0.373		0.167	0.201	0.273	0.158		0.73	0.699	0.803	0.814	
